Assay results reported in patent US3960949A, “1,2-Biguanides” (Schering Aktiengesellschaft, priority 1971, dated 1976).

Test: in vivo
Details: mouse, po
Method: Five days after administration of the substance, the number of surviving animals was determined. […] The LD50 values were in each case based on the free base.

| Structure (SMILES) | LD50 at 120 h [mg/kg] |
| --- | --- |
| CCN=C(NC(=N)N)N(CC)CC.O=[N+]([O-])O [1,1,2-Triethylbiguanide, 1,1,2-Triethylbiguanide Nitrate] | > 2000 |
| Br.CC(C)N=C(NC(=N)N)NC(C)C [1,2-Diisopropylbiguanide, 1,2-Diisopropylbiguanide Hydrobromide] | > 2000 |
| CCCCN/C(=N\CC)NC(=N)N [1-Ethyl-2-n-butylbiguanide] | > 2000 |
| CCCN=C(NC)NC(=N)N.Cl [1-Methyl-2-n-propylbiguanide, 1-Methyl-2-n-propylbiguanide Hydrochloride] | > 2000 |
| CN/C(=N\CCc1ccccc1)NC(=N)N [1-Methyl-2-β-phenethylbiguanide, 2-Methyl-1-β-phenethylbiguanide Nitrate] | 2830 |

Test: not given
Details: in vivo; cited from earlier work

| Structure (SMILES) | gastrointestinal compatibility |
| --- | --- |
| CCCCNC(=N)NC(=N)N [1-Butylbiguanide, 1-butylbiguanide] | gastrointestinal incompatibility |
| [H]/N=C(/N)N/C(=N/[H])NCCc1ccccc1 [Phenformin, 1-β-phenethylbiguanide] | gastrointestinal incompatibility |
